Data: article PMC4660620, “Aspidosperma (Apocynaceae) plant cytotoxicity and activity towards malaria parasites. Part II: experimental studies with Aspidosperma ramiflorum in vivo and in vitro” (Memórias do Instituto Oswaldo Cruz, 2015)

Test system: Plasmodium berghei, the NK65 strain
Test: Drug suppressive test against P. berghei in mice
Type: in vivo, Plasmodium berghei in Swiss outbred mice
Method: Adult Swiss outbred mice (20 ± 2 g weigh) were inoculated by the intraperitoneal route with 1 × 10^5 red blood cells infected withP. berghei, the NK65 strain. Groups of 20-30 infected mice were kept together for 2-24 h, then were divided randomly in groups of up to six animals per cage and were treated by gavage for three consecutive days with 25 mg/Kg or 50 mg/Kg of the test compounds diluted in DMSO 3% (v/v). Two control groups were used and either received CQ (20 mg/kg, diluted in water) or the drug vehicle. Smears prepared from the tail blood of the mice on days 5-10 post-infection were methanol-fixed, stained with Giemsa and examined microscopically.

SMILES: CCN(CC)CCCC(C)Nc1ccnc2cc(Cl)ccc12 (stereo not drawn) [Chloroquine, chloroquine]
- Mice survival (increase) (20 mg/kg, increase compared to survival of nontreated controls): > 8 days
- Mice survival (mice, 20 mg/kg by gavage, three consecutive days): > 30 days
- Parasitaemia reduction at day 10 (mice, 20 mg/kg by gavage, three consecutive days, in relation to untreated mice): 100%
